Laboratory results taken from the NIST ThermoML archive (doi:10.1016/j.fluid.2009.03.017).
± gives the expanded uncertainty stated by the source.

Tests used:
[1] = 298.1 K; 101.33 kPa; Liquid; Vibrating tube method
[2] = refractive index (Na D-line) (dimensionless); conditions: 293.1 K; 101.33 kPa; Liquid; Standard Abbe refractometry

Compound | mass density [1] [kg/m3] | refractive index [2]
C1COCCO1 [1,4-dioxane] | 1025.9 ± 0.1 | 1.422 ± 0.0007
C=CC(C)CCC=C(C)C (centres undefined) [3,7-dimethyl-1,6-octadiene] | 766.8 ± 0.2 | 1.4416 ± 0.0007
